In patent publication US20260137703A1, “2-AMINO-PYRIDO[2,3-D]PYRIMIDIN-7(8H)-ONE AND 7-AMINO-1-PYRIMIDO[4,5-D]PYRIMIDIN-2(1 H)-ONE DERIVATIVES AS EGFR INHIBITORS FOR THE TREATMENT OF CANCER” (Cancer Research Technology Limited, priority 2022, published 2026) one finds IC50 data, which are given here for 36 molecules.

The experiment concerns the target CtermHisTag-mEGFR Wild type (Homo sapiens, UniProt P00533). Briefly: biochemical.

As a reminder, the IC50 is the concentration needed to halve the response being measured.

A value given as a limit tells only on which side of the number the result lay.

Chain of CtermHisTag-mEGFR Wild type (P00533 whole entry): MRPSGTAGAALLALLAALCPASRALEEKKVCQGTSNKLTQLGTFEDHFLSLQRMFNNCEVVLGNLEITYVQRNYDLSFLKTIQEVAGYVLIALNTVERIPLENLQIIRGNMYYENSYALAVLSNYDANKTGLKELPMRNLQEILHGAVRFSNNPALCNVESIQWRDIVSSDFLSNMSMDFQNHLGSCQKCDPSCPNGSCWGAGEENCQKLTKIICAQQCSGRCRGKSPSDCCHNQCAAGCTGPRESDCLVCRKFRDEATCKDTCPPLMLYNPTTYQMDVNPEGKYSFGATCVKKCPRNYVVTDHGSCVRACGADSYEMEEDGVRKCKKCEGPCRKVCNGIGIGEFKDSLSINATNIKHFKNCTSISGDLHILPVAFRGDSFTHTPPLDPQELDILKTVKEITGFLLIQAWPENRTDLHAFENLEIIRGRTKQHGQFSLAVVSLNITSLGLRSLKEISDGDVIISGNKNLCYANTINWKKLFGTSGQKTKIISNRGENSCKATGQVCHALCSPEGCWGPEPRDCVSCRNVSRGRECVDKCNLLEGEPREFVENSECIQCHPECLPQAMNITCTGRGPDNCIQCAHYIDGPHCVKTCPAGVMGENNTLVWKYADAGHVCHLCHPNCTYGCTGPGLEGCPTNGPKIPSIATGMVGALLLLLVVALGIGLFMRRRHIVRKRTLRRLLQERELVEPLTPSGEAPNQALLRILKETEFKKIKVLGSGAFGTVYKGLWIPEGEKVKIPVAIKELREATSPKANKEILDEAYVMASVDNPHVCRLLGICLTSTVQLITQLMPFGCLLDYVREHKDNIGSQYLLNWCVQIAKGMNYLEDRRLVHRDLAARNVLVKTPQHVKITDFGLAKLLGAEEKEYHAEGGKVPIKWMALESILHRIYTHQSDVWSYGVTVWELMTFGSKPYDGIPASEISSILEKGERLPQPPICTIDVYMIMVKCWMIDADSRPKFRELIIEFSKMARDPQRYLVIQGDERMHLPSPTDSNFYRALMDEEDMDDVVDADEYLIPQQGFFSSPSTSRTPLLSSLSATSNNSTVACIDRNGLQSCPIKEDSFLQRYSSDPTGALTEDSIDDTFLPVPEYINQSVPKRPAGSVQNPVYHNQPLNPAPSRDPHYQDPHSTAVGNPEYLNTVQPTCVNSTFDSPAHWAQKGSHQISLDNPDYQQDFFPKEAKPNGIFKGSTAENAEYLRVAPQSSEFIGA

`C#Cc1nc(=O)n(-c2ccccc2)c2nc(Nc3ccccc3OC)ncc12` [Example 4, 4-Ethynyl-7-[(2-methoxyphenyl)amino]-1-phenylpyrimido[4,5-d][1,3]diazin-2-one] showed a concentration for half-maximal inhibition (IC50) of under 1 µM.
With `C#Cc1cc(=O)n(-c2cccc(NC(=O)C=C)c2)c2nc(Nc3ccccc3OC)ncc12` [Example 85, N-(3-(5-Ethynyl-2-((2-methoxyphenyl)amino)-7-oxopyrido[2,3-d]pyrimidin-8(7H)-yl)phenyl)acrylamide] the figure was 1 to 10 µM.
Then `C#Cc1cc(=O)n(-c2cccc(NC(C)=O)c2)c2nc(Nc3ccccc3OC)ncc12` [Example 56, N-(3-(5-Ethynyl-2-((2-methoxyphenyl)amino)-7-oxopyrido[2,3-d]pyrimidin-8(7H)-yl)phenyl)acetamide], with over 10 µM; and `C#Cc1c(NC(C)=O)c(=O)n(-c2ccccc2)c2nc(Nc3ccccc3OC)ncc12` [Example 143, N-[5-ethynyl-2-[(2-methoxyphenyl)amino]-7-oxo-8-phenylpyrido[2,3-d]pyrimidin-6-yl]acetamide], with over 10 µM.
The molecule `C#Cc1c(-c2ccccc2Cl)c(=O)n(C)c2nc(Nc3ccccc3)ncc12` [Example 124, 6-(2-chlorophenyl)-5-ethynyl-8-methyl-2-(phenylamino)pyrido[2,3-d]pyrimidin-7-one] displayed an IC50 of over 10 µM.
Then `C#Cc1c(C(=O)NC)c(=O)n(-c2ccccc2)c2nc(Nc3ccccc3OC)ncc12` [Example 141, 5-ethynyl-2-[(2-methoxyphenyl)amino]-N-methyl-7-oxo-8-phenylpyrido[2,3-d]pyrimidine-6-carboxamide], with over 10 µM.
Then `C=CC(=O)Nc1cc(=O)n(-c2ccccc2)c2nc(Nc3ccccc3OC)ncc12` [Example 2, N-(2-((2-Methoxyphenyl)amino)-7-oxo-8-phenyl-7,8-dihydropyrido[2,3-d]pyrimidin-5-yl)acrylamide], with over 10 µM; and `C#Cc1cc(=O)n(-c2cccc(NS(=O)(=O)C3CC3)c2)c2nc(Nc3ccccc3OC)ncc12` [Example 58, N-(3-(5-Ethynyl-2-((2-methoxyphenyl)amino)-7-oxopyrido[2,3-d]pyrimidin-8(7H)-yl)phenyl)cyclopropanesulfonamide], with over 10 µM; and `C#Cc1cc(=O)n(-c2cccc(NS(C)(=O)=O)c2)c2nc(Nc3ccccc3OC)ncc12` [Example 57, N-(3-(5-Ethynyl-2-((2-methoxyphenyl)amino)-7-oxopyrido[2,3-d]pyrimidin-8(7H)-yl)phenyl)methanesulfonamide], with over 10 µM.
Then `C#Cc1c(-c2ccccc2Cl)c(=O)n(C)c2nc(NCCCCN3CCN(C)CC3)ncc12` [Example 130, 6-(2-chlorophenyl)-5-ethynyl-8-methyl-2-{[4-(4-methylpiperazin-1-yl)butyl]amino}pyrido[2,3-d]pyrimidin-7-one], with over 10 µM; and `C#Cc1c(-c2ccccc2Cl)c(=O)n(C)c2nc(Nc3ccc(N(C)CCN(C)C)c(C)c3)ncc12` [Example 133, 6-(2-chlorophenyl)-2-[(4-{[2-(dimethylamino)ethyl](methyl)amino}-3-methylphenyl)amino]-5-ethynyl-8-methylpyrido[2,3-d]pyrimidin-7-one], with under 1 µM; and `C#Cc1cc(=O)n(-c2ccccc2)c2nc(Nc3ccccc3)ncc12` [Example 5], with 1 to 10 µM.
Molecule `C#Cc1c(C#N)c(=O)n(-c2ccccc2)c2nc(Nc3ccccc3OC)ncc12` [Example 145, 5-ethynyl-2-[(2-methoxyphenyl)amino]-7-oxo-8-phenylpyrido[2,3-d]pyrimidine-6-carbonitrile] returned an IC50 of over 10 µM.
Then `C=Cc1c(-c2ccccc2Cl)c(=O)n(C)c2nc(Nc3ccc(N(C)CCN(C)C)cc3)ncc12` [Example 165, 6-(2-chlorophenyl)-2-[(4-{[2-(dimethylamino)ethyl](methyl)amino}phenyl)amino]-5-ethenyl-8-methylpyrido[2,3-d]pyrimidin-7-one], with over 10 µM.
Then `C#Cc1cc(=O)n(-c2ccccc2)c2nc(Nc3ccc(OCCN(C)C)cc3)ncc12` [Example 13, 2-({4-[2-(Dimethylamino)ethoxy]phenyl}amino)-5-ethynyl-8-phenylpyrido[2,3-d]pyrimidin-7-one], with under 1 µM.
With `C#Cc1cc(=O)n(-c2ccccc2)c2nc(Nc3ccc(N4CCOCC4)cc3OC)ncc12` [Example 35, 5-Ethynyl-2-((2-methoxy-4-morpholinophenyl)amino)-8-phenylpyrido[2,3-d]pyrimidin-7(8H)-one], the IC50 was under 1 µM.
Take `C=Cc1c(-c2ccccc2Cl)c(=O)n(C)c2nc(Nc3cccc(CO)c3)ncc12` [Example 169, 6-(2-chlorophenyl)-5-ethenyl-2-{[3-(hydroxymethyl)phenyl]amino}-8-methylpyrido[2,3-]pyrimidin-7-one]: the IC50 was 1 to 10 µM.
Then `C#Cc1c(-c2ccccc2OC)c(=O)n(C)c2nc(Nc3ccc(N(C)CCN(C)C)cc3)ncc12` [Example 138, 2-[(4-{[2-(dimethylamino)ethyl](methyl)amino}phenyl)amino]-5-ethynyl-6-(2-methoxyphenyl)-8-methylpyrido [2,3-d]pyrimidin-7-one], with 1 to 10 µM; and `C#Cc1cc(=O)n(C)c2nc(Nc3ccccc3OC)ncc12` [Example 48, 5-Ethynyl-2-[(2-methoxyphenyl)amino]-8-methylpyrido[2,3-d]pyrimidin-7-one], with over 10 µM; and `C=Cc1cc(=O)n(-c2ccccc2OC)c2nc(Nc3ccccc3OC)ncc12` [Example 153, 8-(2-Methoxyphenyl)-2-((2-methoxyphenyl)amino)-5-vinylpyrido[2,3-d]pyrimidin-7(8H)-one], with over 10 µM.
With `C=Cc1cc(=O)n(-c2ccccc2)c2nc(Nc3ccccc3OC)ncc12` [Example 152, 5-ethenyl-2-[(2-methoxyphenyl)amino]-8-phenylpyrido[2,3-d]pyrimidin-7-one] the figure was over 10 µM; with `C=Cc1c(-c2ccccc2Cl)c(=O)n(C)c2nc(Nc3cccc(OC)c3)ncc12` [Example 168, 6-(2-chlorophenyl)-5-ethenyl-2-[(3-methoxyphenyl)amino]-8-methylpyrido[2,3-d]pyrimidin-7-one], over 10 µM.
`C=Cc1c(-c2ccccc2Cl)c(=O)n(C)c2nc(N)ncc12` [Example 173, 2-amino-6-(2-chlorophenyl)-5-ethenyl-8-methylpyrido[2,3-d]pyrimidin-7-one] registered an IC50 of over 10 µM.
Then `C=Cc1c(-c2c(Cl)cccc2Cl)c(=O)n(C)c2nc(Nc3ccc(N(C)CCN(C)C)cc3)ncc12` [Example 167, 6-(2,6-dichlorophenyl)-2-[(4-{[2-(dimethylamino)ethyl](methyl)amino}phenyl)amino]-5-ethenyl-8-methylpyrido[2,3-d]pyrimidin-7-one], with over 10 µM.
As for `C#Cc1cc(=O)n(C(C)C)c2nc(Nc3ccccc3OC)ncc12` [Example 83, 5-Ethynyl-8-isopropyl-2-[(2-methoxyphenyl)amino]pyrido[2,3-d]pyrimidin-7-one], the IC50 was over 10 µM.
Then `C#Cc1c(C(=O)N(C)C)c(=O)n(-c2ccccc2)c2nc(Nc3ccccc3OC)ncc12` [Example 146, 5-ethynyl-2-[(2-methoxyphenyl)amino]-N,N-dimethyl-7-oxo-8-phenylpyrido[2,3-d]pyrimidine-6-carboxamide], with over 10 µM.
For `C=Cc1c(C#N)c(=O)n(-c2ccccc2)c2nc(Nc3ccccc3OC)ncc12` [Example 159, 5-ethenyl-2-[(2-methoxyphenyl)amino]-7-oxo-8-phenylpyrido[2,3-d]pyrimidine-6-carbonitrile], the IC50 fell in the range of 1 to 10 µM.
Then `C#Cc1cc(=O)n(-c2ccccc2)c2nc(Nc3ccccc3CO)ncc12` [Example 41, 5-Ethynyl-2-{[2-(hydroxymethyl)phenyl]amino}-8-phenylpyrido[2,3-d]pyrimidin-7-one], with over 10 µM.
The molecule `C#Cc1c(N(C)C)c(=O)n(-c2ccccc2)c2nc(Nc3ccccc3OC)ncc12` [Example 147, 6-(dimethylamino)-5-ethynyl-2-[(2-methoxyphenyl)amino]-8-phenylpyrido[2,3-d]pyrimidin-7-one] had an IC50 of over 10 µM.
In turn, `C=Cc1c(-c2ccccc2)c(=O)n(C)c2nc(Nc3ccccc3OC)ncc12` [Example 162, 5-ethenyl-2-[(2-methoxyphenyl)amino]-8-methyl-6-phenylpyrido[2,3-d]pyrimidin-7-one] gave an IC50 of over 10 µM.
Then `C#Cc1c(N)c(=O)n(-c2ccccc2)c2nc(Nc3ccccc3OC)ncc12` [Example 142, 6-amino-5-ethynyl-2-[(2-methoxyphenyl)amino]-8-phenylpyrido[2,3-d]pyrimidin-7-one], with over 10 µM.
Then `C#Cc1c(-c2ccccc2Cl)c(=O)n(C)c2nc(Nc3ccccc3OC)ncc12` [Example 123, 6-(2-chlorophenyl)-5-ethynyl-2-[(2-methoxyphenyl)amino]-8-methylpyrido[2,3-d]pyrimidin-7-one], with over 10 µM.
With `C=Cc1c(Cc2ccccc2)c(=O)n(C)c2nc(Nc3ccc(N(C)CCN(C)C)cc3)ncc12` [Example 166, 6-benzyl-2-[(4-{[2-(dimethylamino)ethyl](methyl)amino}phenyl)amino]-5-ethenyl-8-methylpyrido[2,3-d]pyrimidin-7-one] the figure was over 10 µM.
Molecule `C#Cc1cc(=O)n(C2CCCC2)c2nc(Nc3ccccc3OC)ncc12` [Example 74, 8-Cyclopentyl-5-ethynyl-2-((2-methoxyphenyl)amino)pyrido[2,3-d]pyrimidin-7(8H)-one] had an IC50 of over 10 µM.
The molecule `C#Cc1c(-c2ccccc2Cl)c(=O)n(C)c2nc(Nc3ccc(N(C)CCN(C)C)cc3OC)ncc12` [Example 122, 6-(2-chlorophenyl)-2-[(4-[[2-(dimethylamino)ethyl](methyl)amino]-2-methoxyphenyl)amino]-5-ethynyl-8-methylpyrido[2,3-d]pyrimidin-7-one] returned an IC50 of under 1 µM.
Then `C=Cc1c(C#N)c(=O)n(-c2ccc(OC)cc2OC)c2nc(Nc3ccccc3OC)ncc12` [Example 160, 8-(2,4-dimethoxyphenyl)-2-((2-methoxyphenyl)amino)-7-oxo-5-vinyl-7,8-dihydropyrido[2,3-d]pyrimidine-6-carbonitrile], with 1 to 10 µM.
